Read-outs that look alike come from different tables or passages of the source.
Experiments:
[1] = system: Pol II CTD (Ser2) phosphorylation; test: Western blot, Pol II CTD Ser2 phosphorylation; type: cell-based; settings: SK-Br3 cell line, 0.2 and 1 μM, 2 hours
HCC1954 cells = test: Breast cancer growth inhibitory activity (Cell-titer Glo, 72 h); type: cell-based; settings: Homo sapiens
Method: (§1) Breast cancer cells in a culture solution (100 μL volume/well, 2,500 SK-Br3 cells/well, 1,000 HCC-1954 cells/well) were seeded into a tissue culture-treated 96-well plate and cultured in a cell incubator for 24 hours. […] Cell-titer Glo™ reagent (50 μL of a 5-fold diluted solution, Promega) was added to each well, and luminescence signals were measured using an Envision™ plate reader (PerkinElmer, USA). Titration curve fitting and IC50 values were generated using Prism 7.0 s/w (GraphPad, San Diego, USA).

CDK12/CyclinK = CDK12/CyclinK (Homo sapiens (Human), UniProt Q9NYV4); test: CDK12/cyclinK enzyme activity; type: biochemical; settings: in vitro
cyclinK = test: Western blot, cyclinK degradation; type: cell-based; settings: SK-Br3 cell line, 0.2 and 1 μM, 2 hours
SK-Br3 cells = test: Breast cancer growth inhibitory activity (Cell-titer Glo, 72 h); type: cell-based; settings: Homo sapiens, SK-BR-3
Method: as §1

[2] = 72 hours, read-out: HCC1954 (GI50/μM)
[3] = 72 hours, read-out: SK-Br3 (GI50/μM)

Sequence of CDK12/CyclinK (Q9NYV4 whole entry): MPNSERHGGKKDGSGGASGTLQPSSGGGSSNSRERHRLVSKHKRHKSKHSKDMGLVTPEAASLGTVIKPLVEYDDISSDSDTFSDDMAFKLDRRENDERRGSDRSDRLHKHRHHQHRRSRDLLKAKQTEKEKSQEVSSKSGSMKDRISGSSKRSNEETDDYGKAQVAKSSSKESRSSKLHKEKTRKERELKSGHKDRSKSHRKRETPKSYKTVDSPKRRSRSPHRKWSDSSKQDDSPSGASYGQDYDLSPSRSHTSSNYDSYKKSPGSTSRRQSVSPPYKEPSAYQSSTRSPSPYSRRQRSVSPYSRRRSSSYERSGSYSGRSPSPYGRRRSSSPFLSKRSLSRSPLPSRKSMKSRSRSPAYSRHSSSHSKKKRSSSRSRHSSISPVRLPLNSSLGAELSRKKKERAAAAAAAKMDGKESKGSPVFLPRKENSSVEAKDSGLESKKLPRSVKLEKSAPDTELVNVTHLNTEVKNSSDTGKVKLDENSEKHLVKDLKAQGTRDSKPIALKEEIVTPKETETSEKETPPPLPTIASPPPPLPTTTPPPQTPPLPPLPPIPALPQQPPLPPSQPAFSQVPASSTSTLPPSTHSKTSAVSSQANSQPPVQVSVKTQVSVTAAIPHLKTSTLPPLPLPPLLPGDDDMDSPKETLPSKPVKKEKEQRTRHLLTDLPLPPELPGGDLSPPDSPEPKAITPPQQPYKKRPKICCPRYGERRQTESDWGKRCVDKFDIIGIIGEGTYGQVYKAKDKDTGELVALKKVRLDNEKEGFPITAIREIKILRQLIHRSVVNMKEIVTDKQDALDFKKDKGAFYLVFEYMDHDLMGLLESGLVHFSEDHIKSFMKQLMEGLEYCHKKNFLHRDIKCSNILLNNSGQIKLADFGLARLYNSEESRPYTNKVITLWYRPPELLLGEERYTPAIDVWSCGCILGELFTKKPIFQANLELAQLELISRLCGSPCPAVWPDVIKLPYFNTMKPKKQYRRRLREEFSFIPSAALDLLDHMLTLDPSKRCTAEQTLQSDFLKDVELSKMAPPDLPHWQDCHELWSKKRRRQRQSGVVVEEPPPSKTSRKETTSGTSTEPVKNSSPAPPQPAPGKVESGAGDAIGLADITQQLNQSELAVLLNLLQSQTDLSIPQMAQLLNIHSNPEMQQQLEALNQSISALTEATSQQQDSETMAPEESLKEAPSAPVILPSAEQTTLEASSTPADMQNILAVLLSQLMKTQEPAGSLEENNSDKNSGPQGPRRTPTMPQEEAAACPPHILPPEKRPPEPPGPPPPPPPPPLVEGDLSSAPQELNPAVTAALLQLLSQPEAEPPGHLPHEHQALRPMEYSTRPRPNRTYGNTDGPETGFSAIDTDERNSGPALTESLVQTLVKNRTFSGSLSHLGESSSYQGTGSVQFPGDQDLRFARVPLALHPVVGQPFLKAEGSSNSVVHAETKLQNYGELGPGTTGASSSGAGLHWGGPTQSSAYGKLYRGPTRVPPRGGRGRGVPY
Sequence of CDK12/CyclinK (O75909 whole entry partner): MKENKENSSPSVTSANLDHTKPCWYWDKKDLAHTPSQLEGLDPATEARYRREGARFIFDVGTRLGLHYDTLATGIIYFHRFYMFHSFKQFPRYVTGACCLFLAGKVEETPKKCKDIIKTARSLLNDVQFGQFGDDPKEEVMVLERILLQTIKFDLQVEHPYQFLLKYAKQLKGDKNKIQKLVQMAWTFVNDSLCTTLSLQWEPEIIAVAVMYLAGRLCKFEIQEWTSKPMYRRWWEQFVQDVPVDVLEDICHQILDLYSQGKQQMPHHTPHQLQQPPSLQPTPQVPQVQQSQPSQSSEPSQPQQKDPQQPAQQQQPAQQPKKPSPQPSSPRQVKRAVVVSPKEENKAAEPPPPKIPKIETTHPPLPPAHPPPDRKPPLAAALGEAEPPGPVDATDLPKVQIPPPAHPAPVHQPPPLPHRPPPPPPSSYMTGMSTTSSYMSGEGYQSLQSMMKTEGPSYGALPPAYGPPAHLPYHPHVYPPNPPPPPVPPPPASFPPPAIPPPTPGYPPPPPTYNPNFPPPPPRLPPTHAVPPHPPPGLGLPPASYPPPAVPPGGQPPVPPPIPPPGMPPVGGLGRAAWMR

SMILES	GI50 (HCC1954 cells; [2]) [µM]	IC50 (CDK12/CyclinK) [µM]	GI50 (SK-Br3 cells; [3]) [µM]	GI50 (SK-Br3 cells; read-out: SK-Br3 GI50) [µM]	GI50 (HCC1954 cells; read-out: HCC1954 GI50) [µM]	Pol II CTD (Ser2) phosphorylation [1]	cyclinK degradation (cyclinK)
CC(C)n1cnc2c(NCc3ccc(-c4cccnc4)cn3)nc(-c3cccnc3)nc21 [Example 2, N-([3,3′-bipyridin]-6-ylmethyl)-9-isopropyl-2-(pyridin-3-yl)-9H-purin-6-amine]	0.659	0.582	0.866	–	–	inhibited Pol II CTD (Ser2) phosphorylation in a dose-dependent manner	induced the degradation of cyclinK
CC(C)n1cnc2c(NCc3ccc(-c4ccncc4)cn3)nc(-c3cccnc3)nc21 [Example 4, N-([3,4′-bipyridin]-6-ylmethyl)-9-isopropyl-2-(pyridin-3-yl)-9H-purin-6-amine]	0.888	0.627	0.74	–	–	inhibited Pol II CTD (Ser2) phosphorylation in a dose-dependent manner	induced the degradation of cyclinK
CC(C)n1cnc2c(NCc3ccc(-c4cccnc4)nc3)nc(-c3ccc4[nH]ncc4c3)nc21 [Example 14, N-([2,3′-bipyridin]-5-ylmethyl)-2-(1H-indazol-5-yl)-9-isopropyl-9H-purin-6-amine]	1.88	0.104	2.6	–	–	–	–
CC(C)n1cnc2c(NCc3ccc(-c4cccnc4)nc3)nc(-c3cnc4ccccc4c3)nc21 [Example 16, N-([2,3′-bipyridin]-5-ylmethyl)-9-isopropyl-2-(quinolin-3-yl)-9H-purin-6-amine]	4.23	0.486	3.71	–	–	–	–
CC(C)n1cnc2c(NCc3ccc(-c4cccnc4)nc3)nc(-c3cncnc3)nc21 [Example 20, N-([2,3′-bipyridin]-5-ylmethyl)-9-isopropyl-2-(pyrimidin-5-yl)-9H-purin-6-amine]	0.308	0.051	0.314	–	–	–	–
CC(C)n1cnc2c(NCc3ccc(-c4cccnc4)nc3)nc(-c3cccc(N)c3)nc21 [Example 26, N-([2,3′-bipyridin]-5-ylmethyl)-2-(3-aminophenyl)-9-isopropyl-9H-purin-6-amine]	0.34	0.17	0.615	–	–	–	–
CC(C)n1cnc2c(NCc3ccc(-c4cccnc4)nc3)nc(-c3ccc(F)nc3)nc21 [Example 28, N-([2,3′-bipyridin]-5-ylmethyl)-2-(6-fluoropyridin-3-yl)-9-isopropyl-9H-purin-6-amine]	1.31	0.147	1.75	–	–	–	–
CC(C)n1cnc2c(NCc3ccc(-c4cccnc4)nc3)nc(-c3ccccc3NCCO)nc21 [Example 31, 2-((2-(6-(([2,3′-bipyridin]-5-ylmethyl)amino)-9-isopropyl-9H-purin-2-yl)phenyl)amino)ethan-1-ol]	1.56	0.799	2.31	–	–	–	–
CC(C)n1cnc2c(NCc3ccc(-c4cccnc4)nc3)nc(-c3ccc(NCCO)nc3)nc21 [Example 35, 2-((5-(6-(([2,3′-bipyridin]-5-ylmethyl)amino)-9-isopropyl-9H-purin-2-yl)pyridin-2-yl)amino)ethan-1-ol]	0.173	0.053	0.261	–	–	–	–
Cc1cc(N)n(-c2nc(NCc3ccc(-c4cccnc4)nc3)c3ncn(C(C)C)c3n2)n1 [Example 40, N-([2,3′-bipyridin]-5-ylmethyl)-2-(5-amino-3-methyl-1H-pyrazol-1-yl)-9-isopropyl-9H-purin-6-amine]	3.45	2.35	5.18	–	–	–	–
CC(C)n1cnc2c(NCc3ccc(-c4cccnc4)nc3)nc(-n3cc(CCO)nn3)nc21 [Example 42, 2-(1-(6-(([2,3′-bipyridin]-5-ylmethyl)amino)-9-isopropyl-9H-purin-2-yl)-1H-1,2,3-triazol-4-yl)ethan-1-ol]	6.5	0.539	8.29	–	–	–	–
c1cncc(-c2ccc(CNc3nc(-c4cccnc4)nc4c3ncn4C3CCCC3)cn2)c1 [Example 47, N-([2,3′-bipyridin]-5-ylmethyl)-9-cyclopentyl-2-(pyridin-3-yl)-9H-purin-6-amine]	2.14	0.293	2.6	–	–	–	–
CN(C)C/C=C/C(=O)Nc1ccc(C(=O)N2CCC[C@@H](Nc3ncc(Cl)c(-c4c[nH]c5ccccc45)n3)C2)cc1 [THZ531, reference compound]	0.214	0.05	–	0.03	0.214	–	–

More lines, in order of falling IC50 (CDK12/CyclinK), values ahead:

GI50 (HCC1954 cells; [2]) [µM]	IC50 (CDK12/CyclinK) [µM]	GI50 (SK-Br3 cells; [3]) [µM]	GI50 (SK-Br3 cells; read-out: SK-Br3 GI50) [µM]	GI50 (HCC1954 cells; read-out: HCC1954 GI50) [µM]	SMILES	Pol II CTD (Ser2) phosphorylation [1]	cyclinK degradation (cyclinK)
6.09	3.01	11.3	–	–	CC(C)n1cnc2c(NCc3ccc(-c4cccnc4)nc3)nc(-c3ccccc3NCCCO)nc21 [Example 32, 3-((2-(6-(([2,3′-bipyridin]-5-ylmethyl)amino)-9-isopropyl-9H-purin-2-yl)phenyl)amino)propan-1-ol]	–	–
10	2.05	13.3	–	–	CC(C)n1cnc2c(NCc3ccc(-c4cccnc4)nc3)nc(-n3cc(CO)nn3)nc21 [Example 41, (1-(6-(([2,3′-bipyridin]-5-ylmethyl)amino)-9-isopropyl-9H-purin-2-yl)-1H-1,2,3-triazol-4-yl)methanol]	–	–
2.62	0.619	2.58	–	–	CC(C)n1cnc2c(NCc3ccc(-c4cccnc4)nc3)nc(-c3ccccc3N)nc21 [Example 25, N-([2,3′-bipyridin]-5-ylmethyl)-2-(2-aminophenyl)-9-isopropyl-9H-purin-6-amine]	–	–
0.906	0.499	1.09	–	–	CC(C)n1cnc2c(NCc3ccc(-c4cccnc4)nc3)nc(-c3ccc(NCCCO)cc3)nc21 [Example 34, 3-((4-(6-(([2,3′-bipyridin]-5-ylmethyl)amino)-9-isopropyl-9H-purin-2-yl)phenyl)amino)propan-1-ol]	–	–
–	0.481	–	–	–	Cc1cc(-c2ccc(CNc3nc(-c4cccnc4)nc4c3ncn4C(C)C)nc2)ccn1 [Example 5, 9-isopropyl-N-((2′-methyl-[3,4′-bipyridin]-6-yl)methyl)-2-(pyridin-3-yl)-9H-purin-6-amine]	inhibited Pol II CTD (Ser2) phosphorylation in a dose-dependent manner	induced the degradation of cyclinK
0.105	0.433	–	–	–	CC(C)n1cnc2c(NCc3ccc(-c4ccccn4)cn3)nc(-c3cccnc3)nc21 [Example 1, N-([2,3′-bipyridin]-6′-ylmethyl)-9-isopropyl-2-(pyridin-3-yl)-9H-purin-6-amine]	inhibited Pol II CTD (Ser2) phosphorylation in a dose-dependent manner	induced the degradation of cyclinK
0.937	0.09	1.25	–	–	Cc1ccc(-c2nc(NCc3ccc(-c4cccnc4)nc3)c3ncn(C(C)C)c3n2)cn1 [Example 17, N-([2,3′-bipyridin]-5-ylmethyl)-9-isopropyl-2-(6-methylpyridin-3-yl)-9H-purin-6-amine]	–	–
0.279	0.065	0.375	–	–	CC(C)n1cnc2c(NCc3ccc(-c4cccnc4)nc3)nc(-c3ccc(N)nc3)nc21 [Example 18, N-([2,3′-bipyridin]-5-ylmethyl)-2-(6-aminopyridin-3-yl)-9-isopropyl-9H-purin-6-amine]	–	–
